Columns and labels:
Type in all cases: functional
Haemonchus contortus [1] = assay: Parasiticidal activity against Haemonchus contortus by larval assay
Ctenocephalides felis [2] = assay: Parasiticidal activity against Ctenocephalides felis after 8 hrs by cat flea assay; set-up: concentration or dose not given beside the values
Ctenocephalides felis [3] = assay: Parasiticidal activity against Ctenocephalides felis assessed as mortality after 24 hrs by cat flea assay; set-up: concentration or dose not given beside the values
Ctenocephalides felis [4] = assay: Parasiticidal activity against Ctenocephalides felis by cat flea assay
Rhipicephalus sanguineus [5] = assay: Parasiticidal activity against Rhipicephalus sanguineus assessed per tick by brown dog tick assay
Rhipicephalus sanguineus [6] = assay: Parasiticidal activity against Rhipicephalus sanguineus assessed as mortality at 10 ug/tick by brown dog tick assay
Rhipicephalus sanguineus [7] = assay: Parasiticidal activity against Rhipicephalus sanguineus assessed as mortality after 24 hrs by brown dog tick assay; set-up: concentration or dose not given beside the values
Haemonchus contortus [8] = assay: Parasiticidal activity against benzimidazole and levamisole-resistant Haemonchus contortus Lawes by larval assay
[9] = tested on: Teladorsagia circumcincta; assay: Parasiticidal activity against Ostertagia circumcincta McMaster
[10] = tested on: Trichostrongylus colubriformis; assay: Parasiticidal activity against Trichostrongylus colubriformis
Haemonchus contortus [11] = assay: Parasiticidal activity against avermectin-resistant Haemonchus contortus CAVR by larval assay

| SMILES | LD99 (Haemonchus contortus [1]) [µM] | Activity (Ctenocephalides felis [2]) [%] | other results |
| --- | --- | --- | --- |
| CC(C)/C(=N\OCc1ccc(C(F)(F)F)cc1C(F)(F)F)c1cc(Cl)ccc1NS(=O)(=O)C(F)(F)F | 1.5 | 10 | – |
| CC(C)/C(=N\OCc1ccc(C(F)(F)F)cc1)c1cc(Cl)ccc1NS(=O)(=O)C(F)(F)F | 2.6 | 12 | – |
| C/C(=N\Oc1ccccc1)c1cc(Cl)ccc1NS(=O)(=O)C(F)(F)F | 14 | 6 | – |
| O=S(=O)(Nc1ccc(Cl)cc1/C=N/OCc1ccc(Cl)cc1Cl)C(F)(F)F | 2 | 12 | – |
| CC/C(=N\OCC1CCCCC1)c1cc(Cl)ccc1NS(=O)(=O)C(F)(F)F | 7 | – | Activity (Ctenocephalides felis [3]): 100%; LC50 (Ctenocephalides felis [4]): 29 ng/cm2; LD50 (Rhipicephalus sanguineus [5]): 3.4 µg; Activity (Rhipicephalus sanguineus [6]): 100%; Activity (Rhipicephalus sanguineus [7]): 100% |
| O=S(=O)(Nc1ccc(Cl)cc1/C(=N/OCc1ccc(C(F)(F)F)cc1C(F)(F)F)c1ccccc1)C(F)(F)F | 3.1 | 21 | – |
| CCC/C(=N\OCc1ccc(C(F)(F)F)cc1C(F)(F)F)c1cc(Cl)ccc1NS(=O)(=O)C(F)(F)F | 2.5 | 79 | – |
| CC/C(=N\OCc1ccc(Cl)cc1Cl)c1cc(Cl)ccc1NS(=O)(=O)C(F)(F)F | 0.84 | 94 | – |
| CC/C(=N\OCc1ccc(C(C)(C)C)cc1)c1cc(Cl)ccc1NS(=O)(=O)C(F)(F)F | 6.9 | 8 | – |
| CC/C(=N\OCc1ccc(F)cc1F)c1cc(Cl)ccc1NS(=O)(=O)C(F)(F)F | 7.2 | 95 | – |
| C/C(=N\OCc1ccc(C(F)(F)F)cc1C(F)(F)F)c1cc(Cl)ccc1NS(=O)(=O)C(F)(F)F | 0.22 | 2 | LD99 (Haemonchus contortus [8]): 0.53 µM; LD99 [9]: 1.1 µM; LD99 [10]: 2.2 µM; LD99 (Haemonchus contortus [11]): 0.53 µM |
| O=S(=O)(Nc1ccc(Cl)cc1/C=N/OCc1ccc(C(F)(F)F)cc1C(F)(F)F)C(F)(F)F | 0.59 | 10 | – |
| CC/C(=N\OCc1ccc(C(F)(F)F)cc1C(F)(F)F)c1cc(Cl)ccc1NS(=O)(=O)C(F)(F)F | 0.56 | 100 | LC50 (Ctenocephalides felis [4]): 19 ng/cm2; Activity (Rhipicephalus sanguineus [7]): 88% |
| C/C(=N\OCC1CCCC1)c1cc(Cl)ccc1NS(=O)(=O)C(F)(F)F | 7.5 | – | Activity (Ctenocephalides felis [3]): 97%; LC50 (Ctenocephalides felis [4]): 18 ng/cm2; LD50 (Rhipicephalus sanguineus [5]): 2.2 µg; Activity (Rhipicephalus sanguineus [7]): 100% |
| CCC/C(=N\OCc1ccc(C(F)(F)F)cc1)c1cc(Cl)ccc1NS(=O)(=O)C(F)(F)F | 3.2 | 36 | – |
